Measured values reported in PubChem BioAssay (NCI).
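Exposure lasted 48 hours, with cells grown in 96-well plates and compounds tested at five concentrations. The concentration for 50% growth inhibition is given as GI50. TGI: total growth inhibition.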

Tested on: U251 CNS
Experiment: inhibition of tumour cell growth, NCI panel, 48 h

Row | Structure (SMILES) | TGI [µM]
1 | COc1cccc(C2SC(N)=Nc3c2c(C)nn3C(=O)c2ccccc2O)c1 (stereo unspecified) | > 10

Tested on: ACHN renal
Experiment: inhibition of tumour cell growth, NCI panel, 48 h

Row | Structure (SMILES) | TGI [µM] | GI50 [µM]
2 | CCOC(=O)c1c(CN2CCCC2)n(-c2ccccc2)c2cc(Br)c(O)cc12 | 44.9 | 
3 | COc1cccc(Nc2nc(-c3cccs3)nc3cc(OC)c(OC)cc23)c1 | 50.3 | 
4 | Nn1c(-c2ccccc2)n[nH]c1=O | > 100 | 
5 | Nn1c(Nc2ccc(S(=O)(=O)Nc3ncccn3)cc2)nnc(/C=C/c2c(O)ccc3ccccc23)c1=O | 67.3 | 
6 | Cc1cc(-c2nc3ccc(F)cc3s2)ccc1NC(=O)[C@H](C)N | 22.9 | 
7 | C=CC1(CC/C(=C\[N+](=O)[O-])c2ccc(OC)c(OC)c2)OCC(C)(C)CO1 | 37.9 | 
8 | Cc1cc(Nc2ccc(S(=O)(=O)O)c3cc(S(=O)(=O)O)cc(S(=O)(=O)O)c23)c2ccccc2n1 | > 100 | 
9 | Cc1cc(C)nc(NS(=O)(=O)c2ccc(NC(=O)c3ccc4nc5ccccc5c(Nc5ccc(S(N)(=O)=O)cc5)c4c3)cc2)n1 | > 100 | 
10 | CC1(C(=O)O)CCC2(C)CCC3(C)C(=CC(=O)C4C5(C)CCC(O)C(C)(C)C5CCC43C)C2C1 (stereo unspecified) | 42.2 | 
11 | NS(=O)(=O)c1nnc(NC(=O)Nc2ccc(Cl)c(Cl)c2)s1 | > 100 | 
12 | COC(=O)c1c(C)nc2c1cc(O)c1[nH]c(C)c(C)nc12 | > 100 | 
13 | Cn1c2ccc3cc2c(=S)c2cc(ccc21)OCCOCCOCCOCCOCCOCCO3 | > 10 | 
14 | O=[N+]([O-])c1cc(C=NC23CC4CC(CC(C4)C2)C3)ccc1Cl | 56.9 | 
15 | COc1cc(S(=O)(=O)Nc2nc(-c3ccc(N4C(=O)C(CC(=O)O)SC4c4cccs4)cc3)cs2)ccc1Cl (stereo unspecified) | > 100 | 
16 | CCCCCC1=CC(=O)C1(Cl)Cl | 23.4 | 
17 | CC(=O)N(C(=O)CC(=O)N1N=C(c2ccccc2)C(N=Nc2ccccc2[N+](=O)[O-])C1=O)c1ccc(Cl)cc1 (stereo unspecified) | > 10 | 
18 | Oc1ccccc1CNCc1nc2ccccc2[nH]1 | 57.6 | 
19 | COc1ncc(/C=C2\OC(=O)c3ccccc32)c(OC)n1 | > 100 | 
20 | CC(=O)Nn1c(=S)[nH]c2ccccc21 | > 100 | 
21 | C[C@]12CCC3C4=C(CCC3C1CCC2=O)C(=O)[C@H]1O[C@H]1C4=O (stereo partly specified) | 6.77 | 
22 | CCCCOC(=O)Nc1ccc(S(=O)(=O)Nc2ccccc2Cl)cc1 | 65.8 | 
23 | O=[N+]([O-])c1ccc(Cl)cc1N/N=C/c1ccnc2ccccc12 | > 100 | 

Row | Structure (SMILES) | TGI [µM] | GI50 [µM]
24 | CC(C)c1cc2c(cc1S(=O)(=O)O)[C@@]1(C)CCC[C@@](C)(C(=O)O)C1CC2 (stereo partly specified) | > 100 | 
25 | N#CC(Cc1ccccc1)N(CCC1=CCCCC1)C(c1ccccc1)c1ccccc1 (stereo unspecified) | > 100 | 
26 | C/C(=C\CBr)CCC(Br)C(C)(C)Br (stereo unspecified) | > 100 | 
27 | C#CCn1c(=O)c2ccccc2n(CC#C)c1=O | > 10 | 
28 | [N-]=[N+]=NC(c1ccccc1)(c1ccccc1)c1ccccc1 | 29.1 | 
29 | CC(=O)c1c2c(c3ccccc3c1O)O[C@@H]1OCC[C@H]21 | > 100 | 
30 | C(=C(c1ccc(OC2CCCCO2)cc1)c1ccc(OC2CCCCO2)cc1)c1ccccc1 (stereo unspecified) | 2.24 | 
31 | CC(=O)Oc1cccc2c1C(=O)CCCC2 | > 100 | 
32 | O=C(c1ccccn1)C1(N2CCCCC2)CCCCC1 | > 100 | 
33 | CCN(CC)C(=S)N/N=C/c1cc([N+](=O)[O-])ccc1O | 25.1 | 
34 | COc1ccc(CN2C(=O)/C(=C\c3cc(OC)c(OC)c(OC)c3)c3ccccc32)cc1 | 4.41 | 2.06
35 | N[C@@H](CCC(=O)NCP(=O)(O)O)C(=O)O | > 100 | 
36 | CCC(=O)NC(Nc1cc(C)on1)(C(F)(F)F)C(F)(F)F | > 100 | 
37 | CCC(=O)NCC1CCCN2CCCCC12 (stereo unspecified) | > 100 | 
38 | Nc1nc(-c2ccccc2)nc2oc(-c3cccs3)nc12 | > 100 | 
39 | S=C(N/N=C(/c1ccccc1)c1ccccn1)N(Cc1ccccn1)Cc1ccccn1 | 0.74 | 
40 | Cc1oc2c(cc(O)c3cc(O)ccc32)c2cccc1-2 | > 100 | 
41 | O=C(OCc1ccccc1)N1CCNCCN(C(=O)OCc2ccccc2)CCNCC1 | > 100 | 
42 | COc1ccc(-n2c(C)nc3ccc(NC(=S)Nc4ccccc4)cc3c2=O)cc1 | > 100 | 
43 | O=C(NCc1ccccc1)c1n[nH][nH]c1=O | > 100 | 
44 | COc1cccc(C2SC(N)=Nc3c2c(C)nn3C(=O)c2ccccc2O)c1 (stereo unspecified) | > 10 | 

Tested on: HS 578T breast
Experiment: inhibition of tumour cell growth, NCI panel, 48 h

Row | Structure (SMILES) | TGI [µM] | GI50 [µM]
45 | CCOC(=O)c1c(CN2CCCC2)n(-c2ccccc2)c2cc(Br)c(O)cc12 | 74.9 | 
46 | COc1cccc(Nc2nc(-c3cccs3)nc3cc(OC)c(OC)cc23)c1 | 75.3 | 
47 | Nn1c(-c2ccccc2)n[nH]c1=O | > 100 | 
48 | Nn1c(Nc2ccc(S(=O)(=O)Nc3ncccn3)cc2)nnc(/C=C/c2c(O)ccc3ccccc23)c1=O | > 100 | 
49 | Cc1cc(-c2nc3ccc(F)cc3s2)ccc1NC(=O)[C@H](C)N | 28.5 | 
50 | C=CC1(CC/C(=C\[N+](=O)[O-])c2ccc(OC)c(OC)c2)OCC(C)(C)CO1 | 79.4 | 
51 | Cc1cc(Nc2ccc(S(=O)(=O)O)c3cc(S(=O)(=O)O)cc(S(=O)(=O)O)c23)c2ccccc2n1 | > 100 | 
52 | Cc1cc(C)nc(NS(=O)(=O)c2ccc(NC(=O)c3ccc4nc5ccccc5c(Nc5ccc(S(N)(=O)=O)cc5)c4c3)cc2)n1 | > 100 | 
53 | CC1(C(=O)O)CCC2(C)CCC3(C)C(=CC(=O)C4C5(C)CCC(O)C(C)(C)C5CCC43C)C2C1 (stereo unspecified) | 65.7 | 
54 | NS(=O)(=O)c1nnc(NC(=O)Nc2ccc(Cl)c(Cl)c2)s1 | 75.9 | 
55 | COC(=O)c1c(C)nc2c1cc(O)c1[nH]c(C)c(C)nc12 | > 100 | 
56 | Cn1c2ccc3cc2c(=S)c2cc(ccc21)OCCOCCOCCOCCOCCOCCO3 | > 10 | 
57 | O=[N+]([O-])c1cc(C=NC23CC4CC(CC(C4)C2)C3)ccc1Cl | > 94 | 
58 | COc1cc(S(=O)(=O)Nc2nc(-c3ccc(N4C(=O)C(CC(=O)O)SC4c4cccs4)cc3)cs2)ccc1Cl (stereo unspecified) | > 100 | 
59 | CCCCCC1=CC(=O)C1(Cl)Cl | > 81.3 | 
60 | CC(=O)N(C(=O)CC(=O)N1N=C(c2ccccc2)C(N=Nc2ccccc2[N+](=O)[O-])C1=O)c1ccc(Cl)cc1 (stereo unspecified) | > 10 | 
61 | Oc1ccccc1CNCc1nc2ccccc2[nH]1 | > 100 | 
62 | COc1ncc(/C=C2\OC(=O)c3ccccc32)c(OC)n1 | > 100 | 
63 | CC(=O)Nn1c(=S)[nH]c2ccccc21 | > 100 | 
64 | C[C@]12CCC3C4=C(CCC3C1CCC2=O)C(=O)[C@H]1O[C@H]1C4=O (stereo partly specified) | > 30.5 | 
65 | CCCCOC(=O)Nc1ccc(S(=O)(=O)Nc2ccccc2Cl)cc1 | 53.8 | 
66 | O=[N+]([O-])c1ccc(Cl)cc1N/N=C/c1ccnc2ccccc12 | > 100 | 

Row | Structure (SMILES) | TGI [µM] | GI50 [µM]
67 | CC(C)c1cc2c(cc1S(=O)(=O)O)[C@@]1(C)CCC[C@@](C)(C(=O)O)C1CC2 (stereo partly specified) | > 100 | 
68 | N#CC(Cc1ccccc1)N(CCC1=CCCCC1)C(c1ccccc1)c1ccccc1 (stereo unspecified) | > 100 | 
69 | C/C(=C\CBr)CCC(Br)C(C)(C)Br (stereo unspecified) | > 100 | 
70 | C#CCn1c(=O)c2ccccc2n(CC#C)c1=O | > 10 | 
71 | [N-]=[N+]=NC(c1ccccc1)(c1ccccc1)c1ccccc1 | 51.8 | 
72 | CC(=O)c1c2c(c3ccccc3c1O)O[C@@H]1OCC[C@H]21 | > 100 | 
73 | C(=C(c1ccc(OC2CCCCO2)cc1)c1ccc(OC2CCCCO2)cc1)c1ccccc1 (stereo unspecified) | 4.44 | 
74 | CC(=O)Oc1cccc2c1C(=O)CCCC2 | > 100 | 
75 | O=C(c1ccccn1)C1(N2CCCCC2)CCCCC1 | 39.5 | 
76 | CCN(CC)C(=S)N/N=C/c1cc([N+](=O)[O-])ccc1O | 95.7 | 
77 | COc1ccc(CN2C(=O)/C(=C\c3cc(OC)c(OC)c(OC)c3)c3ccccc32)cc1 | 55.5 | 3.78
78 | N[C@@H](CCC(=O)NCP(=O)(O)O)C(=O)O | > 100 | 
79 | CCC(=O)NC(Nc1cc(C)on1)(C(F)(F)F)C(F)(F)F | > 100 | 
80 | CCC(=O)NCC1CCCN2CCCCC12 (stereo unspecified) | > 100 | 
81 | Nc1nc(-c2ccccc2)nc2oc(-c3cccs3)nc12 | > 100 | 
82 | S=C(N/N=C(/c1ccccc1)c1ccccn1)N(Cc1ccccn1)Cc1ccccn1 | > 29.8 | 
83 | Cc1oc2c(cc(O)c3cc(O)ccc32)c2cccc1-2 | > 100 | 
84 | O=C(OCc1ccccc1)N1CCNCCN(C(=O)OCc2ccccc2)CCNCC1 | 54.5 | 
85 | O=C(Cc1ccc(O)c(O)c1)NCc1c[nH]c2ccccc12 | > 100 | 
86 | COc1ccc(-n2c(C)nc3ccc(NC(=S)Nc4ccccc4)cc3c2=O)cc1 | > 100 | 
87 | O=C(NCc1ccccc1)c1n[nH][nH]c1=O | > 100 | 

Tested on: OVCAR-4 ovarian
Experiment: inhibition of tumour cell growth, NCI panel, 48 h

Row | Structure (SMILES) | TGI [µM]
88 | CCOC(=O)c1c(CN2CCCC2)n(-c2ccccc2)c2cc(Br)c(O)cc12 | 31.6
89 | COc1cccc(Nc2nc(-c3cccs3)nc3cc(OC)c(OC)cc23)c1 | > 100
90 | Nn1c(-c2ccccc2)n[nH]c1=O | > 100
91 | Nn1c(Nc2ccc(S(=O)(=O)Nc3ncccn3)cc2)nnc(/C=C/c2c(O)ccc3ccccc23)c1=O | > 100
92 | Cc1cc(-c2nc3ccc(F)cc3s2)ccc1NC(=O)[C@H](C)N | 24.4
93 | C=CC1(CC/C(=C\[N+](=O)[O-])c2ccc(OC)c(OC)c2)OCC(C)(C)CO1 | 31.5
94 | Cc1cc(Nc2ccc(S(=O)(=O)O)c3cc(S(=O)(=O)O)cc(S(=O)(=O)O)c23)c2ccccc2n1 | > 100
95 | Cc1cc(C)nc(NS(=O)(=O)c2ccc(NC(=O)c3ccc4nc5ccccc5c(Nc5ccc(S(N)(=O)=O)cc5)c4c3)cc2)n1 | > 100
96 | CC1(C(=O)O)CCC2(C)CCC3(C)C(=CC(=O)C4C5(C)CCC(O)C(C)(C)C5CCC43C)C2C1 (stereo unspecified) | > 100
97 | NS(=O)(=O)c1nnc(NC(=O)Nc2ccc(Cl)c(Cl)c2)s1 | > 100
98 | COC(=O)c1c(C)nc2c1cc(O)c1[nH]c(C)c(C)nc12 | > 100
99 | Cn1c2ccc3cc2c(=S)c2cc(ccc21)OCCOCCOCCOCCOCCOCCO3 | > 10
100 | O=[N+]([O-])c1cc(C=NC23CC4CC(CC(C4)C2)C3)ccc1Cl | 36.3
101 | COc1cc(S(=O)(=O)Nc2nc(-c3ccc(N4C(=O)C(CC(=O)O)SC4c4cccs4)cc3)cs2)ccc1Cl (stereo unspecified) | 66.4
102 | CCCCCC1=CC(=O)C1(Cl)Cl | 38.1
103 | CC(=O)N(C(=O)CC(=O)N1N=C(c2ccccc2)C(N=Nc2ccccc2[N+](=O)[O-])C1=O)c1ccc(Cl)cc1 (stereo unspecified) | > 10
104 | Oc1ccccc1CNCc1nc2ccccc2[nH]1 | > 100
